Data set [1] concerns HBV replication in HepAD38 cells. Description: Anti-HBV activity in HepAD38 cells, extracellular HBV DNA by QPCR. It counts as cell-based, HBV (genotype D, serotype ayw). The following applies: Hepatitis B virus, HePAD38, 168 h, read-out: Anti-HBV EC50, HepAD38 cells, extracellular HBV DNA by QPCR, 7 days of incubation. The essentials:
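Seven-day compound exposure (30 μM down to 10 nM, half-log steps) after tetracycline withdrawal induced HBV replication in HepAD38 cells. Extracellular viral DNA measured by QPCR (copies/mL via standard curve), normalised to DMSO wells; EC50 from 4-parameter non-linear regression.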

Data set [2] is described as follows: In vitro cytotoxicity, MTT cell viability assay in HepG2 cells. Format: cell-based. The following applies: human, Cytotoxicity CC50. The essentials:
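Read-out: MTT formazan absorbance at 492 nm, expressed as % of vehicle signal; CC50 by 4-parameter non-linear regression. Parental HepG2, 20,000 cells/well, treated 7 days with compound from 30 μM down to 1.0 nM.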

`C[C@H](NC(=O)C(F)(F)c1cc(C(=O)Nc2ccc(F)c(Cl)c2)cn1C)C(F)(F)F` [Example 140, (S)-N-(3-chloro-4-fluorophenyl)-5-(1,1-difluoro-2-oxo-2-((1,1,1-trifluoropropan-2-yl)amino)ethyl)-1-methyl-1H-pyrrole-3-carboxamide]: the EC50 in data set [1] was below 5 µM. Further, in data set [2], the CC50 at 7 days is above 30 µM.
The matching figures for `O=C(Nc1ccnc(Cl)c1)c1ccc(F)c(C(F)(F)C(=O)N2[C@@H]3CC[C@H]2C[C@@H](O)C3)c1` [Example 196, N-(2-chloropyridin-4-yl)-3-(1,1-difluoro-2-((1R,3r,5S)-3-hydroxy-8-azabicyclo[3.2.1]octan-8-yl)-2-oxoethyl)-4-fluorobenzamide]: below 5 µM and below 5 µM.
Regarding `Cc1cc(NC(=O)c2ccc(F)c(C(F)(F)C(=O)N3C4CC[C@@H]3C[C@@H](O)C4)c2)cc(F)c1F` [Example 246, 3-(1,1-difluoro-2-((1R,3s,5S)-3-hydroxy-8-azabicyclo[3.2.1]octan-8-yl)-2-oxoethyl)-N-(3,4-difluoro-5-methylphenyl)-4-fluorobenzamide], the EC50 in data set [1] is below 5 µM. In data set [2], this compound had a CC50 at 7 days of 5 to 30 µM.
The matching figures for `Cc1cc(NC(=O)c2ccc(F)c(C(F)(F)C(=O)N3CCC(F)(F)C3)c2)ccc1F` [Example 73, 3-(2-(3,3-difluoropyrrolidin-1-yl)-1,1-difluoro-2-oxoethyl)-4-fluoro-N-(4-fluoro-3-methylphenyl)benzamide]: 5 to 30 µM and 5 to 30 µM.
`Cc1cc(NC(=O)c2cccc(C(F)(F)C(=O)N3CCC(O)CC3)c2Cl)ccc1F` [Example 168, 2-chloro-3-(1,1-difluoro-2-(4-hydroxypiperidin-1-yl)-2-oxoethyl)-N-(4-fluoro-3-methylphenyl)benzamide]: in data set [1], the EC50 was below 5 µM. Also, the CC50 at 7 days in data set [2] is 5 to 30 µM.
`Cn1cc(C(=O)Nc2ccc(F)c(Cl)c2)cc1C(F)(F)C(=O)N[C@@H]1CCOC1` [Example 142, (R)-N-(3-chloro-4-fluorophenyl)-5-(1,1-difluoro-2-oxo-2-((tetrahydrofuran-3-yl)amino)ethyl)-1-methyl-1H-pyrrole-3-carboxamide]: the EC50 in data set [1] is below 5 µM. This compound also showed a CC50 at 7 days in data set [2] above 30 µM.
The matching figures for `Cc1cc(NC(=O)c2cc(C(F)(F)C(=O)NC(C)(C)CO)n(C)c2)ccc1F` [Example 104, 5-(1,1-difluoro-2-((1-hydroxy-2-methylpropan-2-yl)amino)-2-oxoethyl)-N-(4-fluoro-3-methylphenyl)-1-methyl-1H-pyrrole-3-carboxamide]: below 5 µM and above 30 µM.
The corresponding values for `Cc1cc(NC(=O)c2ccc(Cl)c(C(F)(F)C(=O)N3CCC(O)CC3)c2)ccc1F` [Example 17, 4-chloro-3-(1,1-difluoro-2-(4-hydroxypiperidin-1-yl)-2-oxoethyl)-N-(4-fluoro-3-methylphenyl)benzamide] are below 5 µM and 5 to 30 µM.
Consider `O=C(Nc1ccc(F)c(Cl)c1)c1ccc(F)c(C(F)(F)C(=O)N2CCC(O)C(F)(F)C2)c1` (stereo not shown) [Example 169, N-(3-chloro-4-fluorophenyl)-3-(2-(3,3-difluoro-4-hydroxypiperidin-1-yl)-1,1-difluoro-2-oxoethyl)-4-fluorobenzamide], for which, in data set [1], the concentration for a half-maximal effect (EC50) was below 5 µM. Besides, the CC50 at 7 days in data set [2] was in the range of 5 to 30 µM.
The corresponding values for `CC(=O)NC1CCN(C(=O)C(F)(F)c2cc(C(=O)Nc3ccc(F)c(C)c3)ccc2F)CC1(C)C` (stereo not shown) [Example 287, 3-(2-(4-acetamido-3,3-dimethylpiperidin-1-yl)-1,1-difluoro-2-oxoethyl)-4-fluoro-N-(4-fluoro-3-methylphenyl)benzamide] are below 5 µM and 5 to 30 µM.
The corresponding values for `Cc1cc(NC(=O)c2ccc(F)c(C(F)(F)C(=O)NC3CCC(C(=O)O)CC3)c2)ccc1F` (stereo not shown) [Example 235, (1r,4r)-4-(2,2-difluoro-2-(2-fluoro-5-((4-fluoro-3-methylphenyl)carbamoyl)phenyl)acetamido)cyclohexane-1-carboxylic acid] are 5 to 30 µM and above 30 µM.
Turning to `Cc1cc(NC(=O)c2ccc(F)c(C(F)(F)C(=O)N3CCc4[nH]c(=O)oc4C3)c2)ccc1F` [Example 289, 3-(1,1-difluoro-2-oxo-2-(2-oxo-1,4,6,7-tetrahydrooxazolo[5,4-c]pyridin-5(2H)-yl)ethyl)-4-fluoro-N-(4-fluoro-3-methylphenyl)benzamide], the EC50 in data set [1] was below 5 µM. Also, the CC50 at 7 days in data set [2] was 5 to 30 µM.
In the case of `Cc1cc(NC(=O)c2ccc(F)c(C(F)(F)C(=O)N3CCc4[nH]cnc4C3)c2)ccc1F` [Example 238, 3-(1,1-difluoro-2-oxo-2-(1,4,6,7-tetrahydro-5H-imidazo[4,5-c]pyridin-5-yl)ethyl)-4-fluoro-N-(4-fluoro-3-methylphenyl)benzamide], in data set [1], the EC50 was below 5 µM. This compound also gave a CC50 at 7 days in data set [2] above 30 µM.
As to `Cc1cc(NC(=O)c2ccc(F)c(C(F)(F)C(=O)N3CCc4nc(N)sc4C3)c2)ccc1F` [Example 242, 3-(2-(2-amino-6,7-dihydrothiazolo[5,4-c]pyridin-5(4H)-yl)-1,1-difluoro-2-oxoethyl)-4-fluoro-N-(4-fluoro-3-methylphenyl)benzamide], in data set [1], the EC50 is below 5 µM. Also, the CC50 at 7 days in data set [2] fell in the range of 5 to 30 µM.
As to `CNS(=O)(=O)N1C[C@@H](C)N(C(=O)C(F)(F)c2cc(C(=O)Nc3ccc(F)c(C)c3)ccc2F)[C@@H](C)C1` [Example 291, 3-(2-((2S,6R)-2,6-dimethyl-4-(N-methylsulfamoyl)piperazin-1-yl)-1,1-difluoro-2-oxoethyl)-4-fluoro-N-(4-fluoro-3-methylphenyl)benzamide], the EC50 in data set [1] is below 5 µM. Besides, the CC50 at 7 days in data set [2] is 5 to 30 µM.
For `C[C@H](NC(=O)C(F)(F)c1c(C(=O)Nc2ccc(F)c(Cl)c2)ccn1C)C(F)(F)F` [Example 141], the EC50 in data set [1] was 5 to 30 µM. In data set [2], this compound displayed a CC50 at 7 days above 30 µM.
On to `O=C(Nc1ccc(F)c(F)c1)c1ccc(F)c(C(F)(F)C(=O)Nc2ccc(F)cn2)c1` [Example 22, 3-(1,1-difluoro-2-((5-fluoropyridin-2-yl)amino)-2-oxoethyl)-N-(3,4-difluorophenyl)-4-fluorobenzamide], for which, in data set [1], the EC50 is 5 to 30 µM. Moreover, the CC50 at 7 days in data set [2] is above 30 µM.
The matching figures for `Cc1cc(NC(=O)c2ccn(C)c2C(F)(F)C(=O)NC(C)(C)C)ccc1F` [Example 101, 2-(2-(tert-butylamino)-1,1-difluoro-2-oxoethyl)-N-(4-fluoro-3-methylphenyl)-1-methyl-1H-pyrrole-3-carboxamide]: below 5 µM and above 30 µM.
Regarding `Cc1ccc(C(=O)Nc2cc(F)c(F)c(F)c2)cc1C(F)(F)C(=O)N1[C@@H]2CC[C@H]1C[C@H](O)C2` [Example 205, 3-(1,1-difluoro-2-((1R,3s,5S)-3-hydroxy-8-azabicyclo[3.2.1]octan-8-yl)-2-oxoethyl)-4-methyl-N-(3,4,5-trifluorophenyl)benzamide], in data set [1], the EC50 lay within 5 to 30 µM. The compound also displayed a CC50 at 7 days in data set [2] of 5 to 30 µM.
With `Cn1cc(NC(=O)c2ccc(F)c(C(F)(F)C(=O)N3CCC(O)(CO)CC3)c2)cn1` [Example 182, 3-(1,1-difluoro-2-(4-hydroxy-4-(hydroxymethyl)piperidin-1-yl)-2-oxoethyl)-4-fluoro-N-(1-methyl-1H-pyrazol-4-yl)benzamide], the EC50 in data set [1] is 5 to 30 µM. For the same compound, the CC50 at 7 days in data set [2] was above 30 µM.
As for `Cc1cc(NC(=O)c2ccc(F)c(C(F)(F)C(=O)N3CCC(NS(C)(=O)=O)CC3)c2)ccc1F` [Example 231, 3-(1,1-difluoro-2-(4-(methylsulfonamido)piperidin-1-yl)-2-oxoethyl)-4-fluoro-N-(4-fluoro-3-methylphenyl)benzamide], the EC50 in data set [1] is below 5 µM. The CC50 at 7 days in data set [2] was in the range of 5 to 30 µM.
The matching figures for `CC(=O)NC1CCN(C(=O)C(F)(F)c2cc(C(=O)Nc3ccc(F)c(C)c3)ccc2N)CC1(C)C` (stereo not shown) [Example 311, 3-(2-(4-acetamido-3,3-dimethylpiperidin-1-yl)-1,1-difluoro-2-oxoethyl)-4-amino-N-(4-fluoro-3-methylphenyl)benzamide]: below 5 µM and above 30 µM.
As for `Cc1cc(NC(=O)c2ccnc(C(F)(F)C(=O)N3CCc4nc(N)sc4C3)c2)ccc1F` [Example 268, 2-(2-(2-amino-6,7-dihydrothiazolo[5,4-c]pyridin-5(4H)-yl)-1,1-difluoro-2-oxoethyl)-N-(4-fluoro-3-methylphenyl)isonicotinamide], the EC50 in data set [1] lay in the range of 5 to 30 µM. In data set [2], this compound came in with a CC50 at 7 days above 30 µM.
As for `Cn1cc(NC(=O)c2ccc(F)c(C(F)(F)C(=O)N3CCC(O)C(F)(F)C3)c2)cn1` (stereo not shown) [Example 179, 3-(2-(3,3-difluoro-4-hydroxypiperidin-1-yl)-1,1-difluoro-2-oxoethyl)-4-fluoro-N-(1-methyl-1H-pyrazol-4-yl)benzamide], in data set [1], the EC50 fell in the range of 5 to 30 µM. This compound also yielded a CC50 at 7 days in data set [2] above 30 µM.
`Cc1cc(NC(=O)c2ccc(Br)c(C(F)(F)C(=O)N3CCC(O)CC3)c2)ccc1F` [Example 62, 4-bromo-3-(1,1-difluoro-2-(4-hydroxypiperidin-1-yl)-2-oxoethyl)-N-(4-fluoro-3-methylphenyl)benzamide]: the EC50 in data set [1] is below 5 µM. This compound also gave a CC50 at 7 days in data set [2] above 30 µM.
Regarding `Cc1cc(NC(=O)c2ccc(F)c(C(F)(F)C(=O)N3CCn4nncc4C3)c2)ccc1F` [Example 297, 3-(2-(6,7-dihydro-[1,2,3]triazolo[1,5-a]pyrazin-5(4H)-yl)-1,1-difluoro-2-oxoethyl)-4-fluoro-N-(4-fluoro-3-methylphenyl)benzamide], the EC50 in data set [1] was below 5 µM. Besides, in data set [2], the CC50 at 7 days was in the range of 5 to 30 µM.

By EC50 is commonly meant the midpoint of the concentration-response curve. In general, CC50 refers to the concentration at which the toxic effect on the cells reaches its halfway point. Low values mean greater toxicity to the cells, high ones lower toxicity to the cells.

The values are drawn from US11247965B2 (VenatoRx Pharmaceuticals, Inc., priority 2017, dated 2022).
